Consider 36 molecules from patent US12448392B2, “Spiropiperidine derivatives” (89BIO LTD, priority 2016, dated 2025).

Structures can show the parent of a compound that is named as a salt.

In the first experiment the test system is viral replication (Flaviviridae family).
Test: not given
The note with it: inhibition of FASN by small molecule inhibitors; cited from earlier work.
As for `C/C=C/C/C=C/CCC(=O)[C@H]1O[C@H]1C(N)=O` [Cerulenin], the “inhibition of viral replication” value is on record as “strong inhibition of viral replication”.
Regarding `CCCCCCCCCCC[C@@H](C[C@@H]1OC(=O)[C@H]1CCCCCC)OC(=O)[C@H](CC(C)C)NC=O` [Orlistat], the “inhibition of viral replication” value is given as “strong inhibition of viral replication”.

System in another experiment: not given
Test: not given
The note with it: non-specific irreversible FASN inhibitors; cited from earlier work.
With `C/C=C/C/C=C/CCC(=O)[C@H]1O[C@H]1C(N)=O` [Cerulenin], the “brain levels of orexigenic neuropeptides” value is reported as “decrease brain levels of orexigenic neuropeptides” and the food intake result is “decrease food intake”.
Consider `C=C1C(=O)OC(CCCCCCCC)C1C(=O)O` (stereo not drawn) [Example C-75], for which the “brain levels of orexigenic neuropeptides” value is reported as “decrease brain levels of orexigenic neuropeptides” and the food intake result is reported as “decrease food intake”.

The target in another experiment is T1, recombinant human baculovirus-expressed GST-tagged FASN (Homo sapiens, UniProt P49327).
T1 construct: GST
T1 sequence (P49327 whole entry): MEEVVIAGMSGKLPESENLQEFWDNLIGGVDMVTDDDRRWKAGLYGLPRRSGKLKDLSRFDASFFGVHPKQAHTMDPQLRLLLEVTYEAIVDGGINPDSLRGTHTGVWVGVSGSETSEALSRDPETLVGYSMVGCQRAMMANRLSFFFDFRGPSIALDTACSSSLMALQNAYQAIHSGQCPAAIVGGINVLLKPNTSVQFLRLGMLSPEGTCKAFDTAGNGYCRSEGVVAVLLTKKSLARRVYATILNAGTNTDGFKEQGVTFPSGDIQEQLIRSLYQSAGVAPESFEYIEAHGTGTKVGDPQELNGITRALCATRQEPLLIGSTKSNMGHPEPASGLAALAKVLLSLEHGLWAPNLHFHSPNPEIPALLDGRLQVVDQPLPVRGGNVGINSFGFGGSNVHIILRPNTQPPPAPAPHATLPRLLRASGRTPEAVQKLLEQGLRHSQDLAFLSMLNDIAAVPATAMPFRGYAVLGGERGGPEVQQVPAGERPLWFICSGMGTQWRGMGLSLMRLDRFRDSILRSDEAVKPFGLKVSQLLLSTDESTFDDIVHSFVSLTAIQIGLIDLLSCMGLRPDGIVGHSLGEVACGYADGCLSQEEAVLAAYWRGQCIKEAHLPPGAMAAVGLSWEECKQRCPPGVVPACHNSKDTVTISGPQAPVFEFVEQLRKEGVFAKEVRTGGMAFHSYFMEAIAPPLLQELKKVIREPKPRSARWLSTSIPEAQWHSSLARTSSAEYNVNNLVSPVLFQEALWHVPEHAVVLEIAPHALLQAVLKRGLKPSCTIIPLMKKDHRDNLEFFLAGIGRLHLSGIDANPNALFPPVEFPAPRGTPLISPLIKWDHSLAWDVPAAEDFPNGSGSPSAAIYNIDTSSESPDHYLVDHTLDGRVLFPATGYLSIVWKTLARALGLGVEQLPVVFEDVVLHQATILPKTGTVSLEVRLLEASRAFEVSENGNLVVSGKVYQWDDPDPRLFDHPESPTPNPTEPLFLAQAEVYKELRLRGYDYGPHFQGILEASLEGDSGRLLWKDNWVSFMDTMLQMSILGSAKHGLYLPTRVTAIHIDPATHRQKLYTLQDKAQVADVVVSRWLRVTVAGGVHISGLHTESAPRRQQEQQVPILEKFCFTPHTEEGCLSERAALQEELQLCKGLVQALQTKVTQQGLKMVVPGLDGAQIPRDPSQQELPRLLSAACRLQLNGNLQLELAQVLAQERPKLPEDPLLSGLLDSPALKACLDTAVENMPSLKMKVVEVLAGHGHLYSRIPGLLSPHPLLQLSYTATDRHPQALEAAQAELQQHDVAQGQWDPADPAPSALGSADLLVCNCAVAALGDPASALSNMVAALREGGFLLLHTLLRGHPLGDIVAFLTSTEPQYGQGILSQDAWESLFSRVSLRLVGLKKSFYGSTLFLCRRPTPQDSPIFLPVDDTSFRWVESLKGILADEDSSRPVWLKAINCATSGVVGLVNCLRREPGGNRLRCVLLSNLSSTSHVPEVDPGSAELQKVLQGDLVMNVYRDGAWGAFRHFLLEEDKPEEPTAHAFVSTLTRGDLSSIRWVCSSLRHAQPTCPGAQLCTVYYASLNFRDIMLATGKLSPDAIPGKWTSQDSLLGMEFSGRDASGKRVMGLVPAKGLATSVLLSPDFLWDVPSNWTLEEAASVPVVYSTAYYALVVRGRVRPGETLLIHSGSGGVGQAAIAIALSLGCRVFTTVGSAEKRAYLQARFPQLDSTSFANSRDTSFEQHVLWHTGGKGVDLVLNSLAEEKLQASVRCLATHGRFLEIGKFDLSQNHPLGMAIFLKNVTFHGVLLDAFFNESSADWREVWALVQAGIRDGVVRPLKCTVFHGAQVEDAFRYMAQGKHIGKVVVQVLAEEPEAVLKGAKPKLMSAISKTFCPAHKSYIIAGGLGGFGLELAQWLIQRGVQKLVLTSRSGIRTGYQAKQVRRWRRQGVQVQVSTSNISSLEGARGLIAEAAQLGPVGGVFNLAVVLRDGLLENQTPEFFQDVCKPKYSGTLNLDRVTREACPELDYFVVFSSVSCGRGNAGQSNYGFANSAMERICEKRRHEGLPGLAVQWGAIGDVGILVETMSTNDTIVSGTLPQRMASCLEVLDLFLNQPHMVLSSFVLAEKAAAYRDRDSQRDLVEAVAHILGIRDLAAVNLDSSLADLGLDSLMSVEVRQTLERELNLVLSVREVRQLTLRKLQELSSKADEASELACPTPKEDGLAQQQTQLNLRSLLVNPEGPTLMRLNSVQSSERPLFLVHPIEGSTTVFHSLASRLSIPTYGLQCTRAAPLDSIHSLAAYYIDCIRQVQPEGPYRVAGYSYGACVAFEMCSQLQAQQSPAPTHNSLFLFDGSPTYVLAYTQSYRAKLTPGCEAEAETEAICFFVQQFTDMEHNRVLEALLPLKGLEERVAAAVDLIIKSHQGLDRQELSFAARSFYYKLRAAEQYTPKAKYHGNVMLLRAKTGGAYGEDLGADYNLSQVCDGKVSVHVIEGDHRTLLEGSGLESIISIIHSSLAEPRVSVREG
Put plainly: biochemical.
Conditions: not given
For orientation: IC50 means the concentration that gives 50% inhibition. As for `CCC(=O)N1CCC2(CC1)OCc1cc(-c3ccccn3)ccc1O2` [Example 218, 1-[6-(2-Pyridyl)spiro[4H-1,3-benzodioxine-2,4′-piperidine]-1′-yl]propan-1-one, HCl], the IC50 was in the range of 1 to 10 µM.
With `O=C(C1CC1)N1CCC2(CC1)OCc1cc(-c3ccccn3)ccc1O2` [Example 219, Cyclopropyl-[6-(2-pyridyl)spiro[4H-1,3-benzodioxine-2,4′-piperidine]-1′-yl]methanone, HCl], the concentration for half-maximal inhibition (IC50) fell in the range of 1 to 10 µM.
For the molecule `O=C([C@H]1CCCO1)N1CCC2(CC1)OCc1cc(-c3ccccn3)ccc1O2` [Example 220, [6-(2-Pyridyl)spiro[4H-1,3-benzodioxine-2,4′-piperidine]-1′-yl]-[(2R)-tetrahydrofuran-2-yl]methanone, HCl], the IC50 lay in the range of 0.1 to 0.999 µM.
Regarding `CCC(=O)N1CCC2(CC1)OCc1cc(-c3cccnc3)ccc1O2` [Example 224, 1-[6-(3-Pyridyl)spiro[4H-1,3-benzodioxine-2,4′-piperidine]-1′-yl]propan-1-one, HCl], the IC50 is 1 to 10 µM.
`O=C(C1CC1)N1CCC2(CC1)OCc1cc(-c3cccnc3)ccc1O2` [Example 225, Cyclopropyl-[6-(3-pyridyl)spiro[4H-1,3-benzodioxine-2,4′-piperidine]-1′-yl]methanone, HCl]: the IC50 lay in the range of 1 to 10 µM.
Still for that read-out and setting: with `O=C([C@H]1CCCO1)N1CCC2(CC1)OCc1cc(-c3cccnc3)ccc1O2` [Example 229, [6-(3-Pyridyl)spiro[4H-1,3-benzodioxine-2,4′-piperidine]-1′-yl]-[(2R)-tetrahydrofuran-2-yl]methanone] the figure was 0.1 to 0.999 µM; with `O=C(C1CC1)N1CCC2(CC1)OCc1cc(-c3ccncc3)ccc1O2` [Example 230, Cyclopropyl-[6-(4-pyridyl)spiro[4H-1,3-benzodioxine-2,4′-piperidine]-1′-yl]-methanone, HCl], 1 to 10 µM.
On to `O=C([C@H]1CCCO1)N1CCC2(CC1)OCc1cc(-c3ccncc3)ccc1O2` [Example 231, [6-(4-Pyridyl)spiro[4H-1,3-benzodioxine-2,4′-piperidine]-1′-yl]-[(2R)-tetrahydrofuran-2-yl]methanone, HCl], for which the IC50 was in the range of 0.1 to 0.999 µM.
For the molecule `CCC(=O)N1CCC2(CC1)OCc1cc(-c3ccncc3)ccc1O2` [Example 232, 1-[6-(4-Pyridyl)spiro[4H-1,3-benzodioxine-2,4′-piperidine]-1′-yl]propan-1-one, HCl], the concentration for half-maximal inhibition (IC50) lay within 1 to 10 µM.
`COc1cc(-c2ccc3cccnc3c2C)cc2c1OC1(CCN(C(N)=O)CC1)OC2` [Example 247, 8-Methoxy-6-(8-methyl-7-quinolyl)spiro[4H-1,3-benzodioxine-2,4′-piperidine]-1′-carboxamide]: the IC50 is 1 to 10 µM.
The same measure, in the same setting: then `CONC(=O)N1CCC2(CC1)OCc1cc(-c3ccc4c(C)nccc4c3)cc(OC)c1O2` [Example 248], with 1 to 10 µM.

Still in this experiment, the particulars now being: 5 nM FASN, 150 μM NADPH, 10 μM acetyl-CoA, 25 μM malonyl-CoA, 90 minutes incubation; read-out: IC50 data for Compounds of Formula I, Activity.
Consider `CCC(=O)N1CCC2(CCc3cc(-c4cccnc4)ccc3O2)CC1` [Example 221, 1-[6-(3-Pyridyl)spiro[chromane-2,4′-piperidine]-1′-yl]propan-1-one, HCl], for which the IC50 was in the range of 1 to 10 µM.
With `O=C(C1CC1)N1CCC2(CCc3cc(-c4cccnc4)ccc3O2)CC1` [Example 222, Cyclopropyl-[6-(3-pyridyl)spiro[chromane-2,4′-piperidine]-1′-yl]methanone, HCl], the IC50 is 1 to 10 µM.
With `O=C([C@H]1CCCO1)N1CCC2(CCc3cc(-c4cccnc4)ccc3O2)CC1` [Example 223, [6-(3-Pyridyl)spiro[chromane-2,4′-piperidine]-1′-yl]-[(2R)-tetrahydrofuran-2-yl]methanone, HCl], the IC50 lay in the range of 0.1 to 0.999 µM.
Consider `CCC(=O)N1CCC2(CCc3cc(-c4ccncc4)ccc3O2)CC1` [Example 226, 1-[6-(4-Pyridyl)spiro[chromane-2,4′-piperidine]-1′-yl]propan-1-one, HCl], for which the 50% inhibitory concentration (IC50) lay within 1 to 10 µM.
Take `O=C(C1CC1)N1CCC2(CCc3cc(-c4ccncc4)ccc3O2)CC1` [Example 227, Cyclopropyl-[6-(4-pyridyl)spiro[chromane-2,4′-piperidine]-1′-yl]methanone, HCl]: the IC50 is 1 to 10 µM.
With `O=C([C@H]1CCCO1)N1CCC2(CCc3cc(-c4ccncc4)ccc3O2)CC1` [Example 228, [6-(4-Pyridyl)spiro[chromane-2,4′-piperidine]-1′-yl]-[(2R)-tetrahydrofuran-2-yl]methanone, HCl], the IC50 was in the range of 0.1 to 0.999 µM.
On the same count and under the same terms, with `Cc1nccc2cc(-c3cc4c(cc3F)OC3(CC4)CCN(C(N)=O)CC3)ccc12` [Example 234, 7-Fluoro-6-(1-methyl-6-isoquinolyl)spiro[chromane-2,4′-piperidine]-1′-carboxamide] the figure was 1 to 10 µM.
`NC(=O)N1CCC2(CCc3cc(-c4cc5ccccc5o4)ccc3O2)CC1` [Example 235, 6-(Benzofuran-2-yl)spiro[chromane-2,4′-piperidine]-1′-carboxamide]: the IC50 fell in the range of 1 to 10 µM.
The same measure, in the same setting: with `NC(=O)N1CCC2(CCc3cc(-c4cc5ccccc5[nH]4)ccc3O2)CC1` [Example 236, 6-(1H-Indol-2-yl)spiro[chromane-2,4′-piperidine]-1′-carboxamide] the figure was 1 to 10 µM.
In the case of `Cc1c(-c2cc(F)c3c(c2)CCC2(CCN(C(N)=O)CC2)O3)ccc2cccnc12` [Example 237, 8-Fluoro-6-(8-methyl-7-quinolyl)spiro[chromane-2,4′-piperidine]-1′-carboxamide], the IC50 fell in the range of 0.001 to 0.099 µM.
As for `CONC(=O)N1CCC2(CCc3cc(-c4ccc5cccnc5c4C)cc(F)c3O2)CC1` [Example 238, 8-Fluoro-N-methoxy-6-(8-methyl-7-quinolyl)spiro[chromane-2,4′-piperidine]-1′-carboxamide], the IC50 is 0.001 to 0.099 µM.
Still for that read-out and setting: then `Cc1nccc2cc(-c3ccc4c(c3F)CCC3(CCN(C(N)=O)CC3)O4)ccc12` [Example 239, 5-Fluoro-6-(1-methyl-6-isoquinolyl)spiro[chromane-2,4′-piperidine]-1′carboxamide], with 1 to 10 µM.
Same read-out and setting: then `Cc1c(-c2ccc3cccnc3c2C)ccc2c1CCC1(CCN(C(N)=O)CC1)O2` [Example 240, 5-Methyl-6-(8-methyl-7-quinolyl)spiro[chromane-2,4′-piperidine]-1′-carboxamide], with 1 to 10 µM; and `Cc1c(-c2ccc3c(C)nccc3c2)ccc2c1CCC1(CCN(C(N)=O)CC1)O2` [Example 241, 5-methyl-6-(1-methyl-6-isoquinolyl)spiro[chromane-2,4′-piperidine]-1′-carboxamide], with 1 to 10 µM.
Turning to `CONC(=O)N1CCC2(CCc3cc(-c4ccc5c(C)nccc5c4)cc(F)c3O2)CC1` [Example 242], the 50% inhibitory concentration (IC50) fell in the range of 0.001 to 0.099 µM.
On the same count and under the same terms, then `Cc1c(-c2ccc3c(c2F)CCC2(CCN(C(N)=O)CC2)O3)ccc2cccnc12` [Example 243, 5-Fluoro-6-(8-methyl-7-quinolyl)spiro[chromane-2,4′-piperidine]-1′-carboxamide], with 0.1 to 0.999 µM; and `Cc1cc2c(cc1-c1ccc3cccnc3c1C)CCC1(CCN(C(N)=O)CC1)O2` [Example 244, 7-Methyl-6-(8-methyl-7-quinolyl)spiro[chromane-2,4′-piperidine]-1′-carboxamide], with 1 to 10 µM; and `CONC(=O)N1CCC2(CCc3cc(-c4ccc5cccnc5c4C)c(C)cc3O2)CC1` [Example 245, N-methoxy-7-methyl-6-(8-methyl-7-quinolyl)spiro[chromane-2,4′-piperidine]-1′-carboxamide], with 0.1 to 0.999 µM.
Same read-out and setting: with `CONC(=O)N1CCC2(CCc3cc(-c4ccc5c(C)nccc5c4)c(C)cc3O2)CC1` [Example 246, N-Methoxy-7-methyl-6-(1-methyl-6-isoquinolyl)spiro[chromane-2,4′-piperidine]-1′-carboxamide] the figure was 0.1 to 0.999 µM.
Still for that read-out and setting: then `Cc1c(-c2cc(Cl)c3c(c2)CCC2(CCN(C(N)=O)CC2)O3)ccc2cccnc12` [Example 249, 8-chloro-6-(8-methyl-7-quinolyl)spiro[chromane-2,4′-piperidine]-1′-carboxamide], with 1 to 10 µM.
Regarding `CONC(=O)N1CCC2(CCc3cc(-c4ccc5cccnc5c4C)cc(Cl)c3O2)CC1` [Example 250, 8-Chloro-N-methoxy-6-(8-methyl-7-quinolyl)spiro[chromane-2,4′-piperidine]-1′-carboxamide], the IC50 was 0.1 to 0.999 µM.
Turning to `Cc1c(-c2ccc3c(c2)CCC2(CCN(C(N)=O)CC2)O3)ccc2c(O)ccnc12` [Example 251, 6-(4-Hydroxy-8-methyl-7-quinolyl)spiro[chromane-2,4′-piperidine]-1′-carboxamide], the IC50 is 1 to 10 µM.
